Test results published in patent US7858611B2, “Neurogenesis by modulating angiotensin” (BrainCells Inc., priority 2006, dated 2010).
Like-named read-outs stand apart in the source and are kept apart here.

What was measured:
mGluR2 = mGluR2 (Homo sapiens, UniProt Q14416); conditions: read-out: IC50 against mGluR2; cited from earlier work
mGluR3 = mGluR3 (Homo sapiens, UniProt Q14832); conditions: read-out: IC50 against mGluR3; cited from earlier work
[1] = test system: Group I or Group III receptors; conditions: at sub-mM concentrations; cited from earlier work
mGlu7 and mGlu8 = conditions: at higher concentrations (e.g., above 1 μM); cited from earlier work
[2] = test system: KA, AMPA, and NMDA iGlu receptors; conditions: cited from earlier work
human mGlu3 receptors = human mGlu3 receptors (Homo sapiens, UniProt Q14832); conditions: in vitro; low nanomolar range; read-out: EC50 against human mGlu3 receptors; cited from earlier work
human mGlu2 receptors = human mGlu2 receptors (Homo sapiens, UniProt Q14416); conditions: in vitro; low nanomolar range; read-out: EC50 against human mGlu2 receptors; cited from earlier work
[3] = test system: human neural stem cells (hNSCs); experiment: Neuronal differentiation of human neural stem cells (TUJ-1 antibody staining); assay type: cell-based; conditions: for EC50: Homo sapiens, Neural stem cell, read-out: EC50 for neuronal differentiation; for effect on neuronal differentiation: dose response
Excerpt: (§1) Mitogen-free test media with a positive control for neuronal differentiation was used along with basal media without growth factors as a negative control.
as §1, §1, §1, §1
(§2) Human neural stem cells (hNSCs) were isolated and grown in monolayer culture, plated, treated with varying concentrations of benazepril (test compound), and stained with TUJ-1 antibody, as described above. Mitogen-free test media with a positive control for neuronal differentiation was used along with basal media without growth factors as a negative control.
as §2, with “trandolapril” for “benazepril”, “described in” for “described”
as §2, with “candesartan” for “benazepril”, “described in” for “described”
as §2, with “telmisartan” for “benazepril”, “described in” for “described”
as §2, with “ibudilast and/or captopril” for “benazepril”, “compounds),” for “compound),”
as §2, with “enoximone and/or captopril” for “benazepril”, “compounds),” for “compound),”
as §2, with “ibudilast and/or candesartan” for “benazepril”, “compounds),” for “compound),”
as §2, with “baclofen and/or captopril” for “benazepril”, “compounds),” for “compound),”
Human neural stem cells (hNSCs) were isolated and grown in monolayer culture, plated, treated with varying concentrations of donepezil and/or captopril (test compounds), and stained with TUJ-1 antibody, as described above.

[4] = agent alone, percentage of neuronal positive control, basal media values subtracted
[5] = agent alone, FIG. 6-9, percentage of neuronal positive control, basal media values subtracted

Sequence of human mGlu3 receptors (Q14832 23-879): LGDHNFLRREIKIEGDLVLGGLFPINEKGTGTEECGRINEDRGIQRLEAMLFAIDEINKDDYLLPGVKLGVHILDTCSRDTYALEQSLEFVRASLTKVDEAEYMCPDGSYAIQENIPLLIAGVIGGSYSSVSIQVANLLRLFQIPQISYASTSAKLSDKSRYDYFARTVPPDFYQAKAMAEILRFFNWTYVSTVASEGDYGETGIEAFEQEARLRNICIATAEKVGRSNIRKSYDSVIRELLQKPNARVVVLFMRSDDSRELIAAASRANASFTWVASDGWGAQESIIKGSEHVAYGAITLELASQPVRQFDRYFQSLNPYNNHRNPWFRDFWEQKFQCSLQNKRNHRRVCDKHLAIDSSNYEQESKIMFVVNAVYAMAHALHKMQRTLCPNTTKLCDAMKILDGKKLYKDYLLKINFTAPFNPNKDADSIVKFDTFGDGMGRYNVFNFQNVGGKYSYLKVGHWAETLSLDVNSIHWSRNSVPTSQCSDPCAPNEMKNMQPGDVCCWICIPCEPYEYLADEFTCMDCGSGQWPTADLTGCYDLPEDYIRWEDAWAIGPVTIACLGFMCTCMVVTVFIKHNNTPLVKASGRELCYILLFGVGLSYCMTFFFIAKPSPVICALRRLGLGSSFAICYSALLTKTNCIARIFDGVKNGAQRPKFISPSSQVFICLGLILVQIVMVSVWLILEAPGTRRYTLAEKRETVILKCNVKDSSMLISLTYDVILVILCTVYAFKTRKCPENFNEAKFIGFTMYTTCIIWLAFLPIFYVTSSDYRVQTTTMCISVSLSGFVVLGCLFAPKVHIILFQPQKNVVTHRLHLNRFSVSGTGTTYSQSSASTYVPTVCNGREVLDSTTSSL
Sequence of mGluR3 (Q14832 23-879): as above
Sequence of mGluR2 (Q14416 19-872): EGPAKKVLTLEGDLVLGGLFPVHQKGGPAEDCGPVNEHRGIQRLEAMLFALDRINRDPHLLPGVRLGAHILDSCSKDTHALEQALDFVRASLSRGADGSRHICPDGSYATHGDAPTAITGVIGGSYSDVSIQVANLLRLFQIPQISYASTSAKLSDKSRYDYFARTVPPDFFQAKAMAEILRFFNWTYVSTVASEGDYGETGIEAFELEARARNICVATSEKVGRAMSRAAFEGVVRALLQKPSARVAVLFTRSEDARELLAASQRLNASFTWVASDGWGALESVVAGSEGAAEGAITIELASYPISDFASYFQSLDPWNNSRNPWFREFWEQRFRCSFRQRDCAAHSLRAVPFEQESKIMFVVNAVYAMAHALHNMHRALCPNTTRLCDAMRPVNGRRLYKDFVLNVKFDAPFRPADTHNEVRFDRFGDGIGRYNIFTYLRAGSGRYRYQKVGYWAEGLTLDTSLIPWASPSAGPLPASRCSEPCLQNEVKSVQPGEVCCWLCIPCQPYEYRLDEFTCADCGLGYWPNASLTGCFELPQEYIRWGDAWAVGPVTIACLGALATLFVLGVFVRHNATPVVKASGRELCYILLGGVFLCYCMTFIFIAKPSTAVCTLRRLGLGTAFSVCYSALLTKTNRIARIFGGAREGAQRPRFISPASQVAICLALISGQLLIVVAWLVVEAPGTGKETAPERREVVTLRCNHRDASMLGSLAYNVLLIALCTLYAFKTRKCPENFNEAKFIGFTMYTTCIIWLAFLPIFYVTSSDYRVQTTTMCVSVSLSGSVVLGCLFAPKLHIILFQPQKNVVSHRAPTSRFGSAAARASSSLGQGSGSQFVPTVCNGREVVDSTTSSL
Sequence of human mGlu2 receptors (Q14416 19-872): as above

| SMILES | EC50 [3, 4] [µM] | effect on neuronal differentiation ([3]; agent alone) | other results |
| --- | --- | --- | --- |
| NC1(C(=O)O)CCc2cc(P(=O)(O)O)ccc21 (racemic) [APICA, (RS)-1-amino-5-phosphonoindan-1-carboxylic acid] |  |  | IC50 (mGluR2): ~30 µM; IC50 (mGluR3): ~30 µM; activity against Group I or Group III receptors [1]: no appreciable activity |
| N[C@](CC1c2ccccc2Oc2ccccc21)(C(=O)O)[C@H]1C[C@@H]1C(=O)O [LY341495, (2S)-2-amino-2-(1S,2S-2-carboxycycloprop-1-yl)-3-(xanth-9-yl)propanoic acid] |  |  | activity against mGlu7 and mGlu8 (mGlu7 and mGlu8): antagonist activity; activity against KA, AMPA, and NMDA iGlu receptors [2]: substantially inactive |
| N[C@@]1(C(=O)O)CO[C@H]2[C@H](C(=O)O)[C@H]21 [LY379268, (−)-2-oxa-4-aminobicyclohexane-4,6-dicarboxylic acid] |  |  | EC50 (human mGlu3 receptors): < 0.01 µM; EC50 (human mGlu2 receptors): < 0.01 µM |
| CC(=O)SC[C@@H](C)C(=O)N1CCC[C@H]1C(=O)N[C@@H](Cc1ccccc1)C(=O)O [alacepril, 1-(D-3-acetylthio-2-methylpropanoyl)-L-prolyl-L-phenylalanine] | 13 | promoted neuronal differentiation |  |
| NCC(CC(=O)O)c1ccc(Cl)cc1 (stereo not shown) [baclofen] | 3.2 |  |  |
| CCOC(=O)[C@H](CCc1ccccc1)N[C@H]1CCc2ccccc2N(CC(=O)O)C1=O [benazepril, 2-[4-(1-ethoxycarbonyl-3-phenyl-propyl)amino-5-oxo-6-azabicyclo[5.4.0]undeca-7,9,11-trien-6-yl]acetic acid] |  | promoted neuronal differentiation | EC50 [3, 5]: 3.3 µM |
| CCOc1nc2cccc(C(=O)O)c2n1Cc1ccc(-c2ccccc2-c2nnn[nH]2)cc1 [candesartan, 2-ethoxy-3-[[4-[2-(2H-tetrazol-5-yl)phenyl]phenyl]methyl]-3H-benzoimidazole-4-carboxylic acid] | 2.2 | promoted neuronal differentiation | EC50 [3, 5]: ~0.84 µM |
| C[C@H](CS)C(=O)N1CCC[C@H]1C(=O)O [captopril, 1-[(2S)-3-mercapto-2-methylpropionyl]-1-proline] | 3.8 | promoted neuronal differentiation |  |
| COc1cc2c(cc1OC)C(=O)C(CC1CCN(Cc3ccccc3)CC1)C2 (stereo not shown) [donepezil] |  |  | EC50 [3]: 2 µM |
| CCOC(=O)C(CCc1ccccc1)NC(C)C(=O)N1C(C(=O)O)CC2CCCCC21 (stereo not shown) [trandolapril, 1-[2-[(1-ethoxycarbonyl-3-phenyl-propyl)amino]propanoyl]-2,3,3a,4,5,6,7,7a-octahydroindole-2-carboxylic acid] |  | promoted neuronal differentiation | EC50 [3, 5]: ~35 µM |

Second part, led by results:

| EC50 [3, 4] [µM] | SMILES | effect on neuronal differentiation ([3]; agent alone) | other results |
| --- | --- | --- | --- |
| 0.5 | CCOC(=O)[C@H](CCc1ccccc1)N[C@@H](C)C(=O)N1CCC[C@H]1C(=O)O [enalapril, (S)-1-[N-[1-(ethoxycarbonyl)-3-phenylpropyl]-1-alanyl]-1-proline] | promoted neuronal differentiation |  |
| 6.8 | CSc1ccc(C(=O)c2[nH]c(=O)[nH]c2C)cc1 [enoximone] |  |  |
| 6.2 | CC(C)C(=O)c1c(C(C)C)nn2ccccc12 [ibudilast] |  |  |
| 9.1 | NCCCC[C@H](N[C@@H](CCc1ccccc1)C(=O)O)C(=O)N1CCC[C@H]1C(=O)O [lisinopril, (S)-1-(N(sup 2)-(1-carboxy-3-phenylpropyl)-L-lysyl)-L-proline] | promoted neuronal differentiation |  |
| 0.9 | CCCCc1nc(Cl)c(CO)n1Cc1ccc(-c2ccccc2-c2nnn[nH]2)cc1 [losartan, [2-butyl-5-chloro-3-[[4-[2-(2H-tetrazol-5-yl)phenyl]phenyl]methyl]-3H-imidazol-4-yl]methanol] | promoted neuronal differentiation |  |
| 2.3 | COc1ccc(C2CNC(=O)C2)cc1OC1CCCC1 (stereo not shown) [rolipram] |  |  |
| 0.06 | CCCc1nc2c(C)cc(-c3nc4ccccc4n3C)cc2n1Cc1ccc(-c2ccccc2C(=O)O)cc1 [telmisartan, 2-[4-[[4-methyl-6-(1-methylbenzoimidazol-2-yl)-2-propyl-benzoimidazol-1-yl]methyl]phenyl]benzoic acid] | promoted neuronal differentiation | EC50 [3, 5]: ~0.03 µM |
| 16.4 | Cn1c(=O)c2[nH]cnc2n(C)c1=O [theophylline] |  |  |
| 8.6 | CCCc1nc(C)c2c(=O)[nH]c(-c3cc(S(=O)(=O)N4CCN(CC)CC4)ccc3OCC)nn12 [vardenafil] |  |  |
